Molecules are shown by their SMILES.

The subject of one data set is VCP. On the set-up: method as in PMID 21383145. The following applies: reported value; read-out: in vitro IC50 (half maximal inhibitory concentration) for VCP; cited from earlier work.
In data set [1] the test system is HeLa cells. Description: cell death-inducing activity. The data set is classed as cell-based. To be noted: 50 μM, 24 hours. The source says:
(§1) Figure 1 Structures and characterization of KUSs, novel VCP modulators. (a) Structures and IC50 values of KUS11, KUS31, KUS69, KUS94, KUS121, and KUS187. […] (b) ATPase activity assays of recombinant human […], comparing KUSs and DBeQ. (c) Immunoblot analysis of ubiquitinated proteins, an ER stress marker (CHOP), and an autophagy indicator (LC3), comparing KUSs and DBeQ. As a control, MG132, a proteasome inhibitor, was used for the analysis. Actin served as a loading control. Complete scans of the different blots are presented in Supplementary Fig. 7. (d) Comparison of KUSs and DBeQ for cell death-inducing activities. HeLa cells were treated with 50 μM DBeQ or KUSs for 24 hours. […]

In the next data set the test system is cellular VCP functions. Description: immunoblot of ubiquitinated proteins, CHOP (ER stress) and LC3 (autophagy) in cultured cells. The data set is classed as cell-based.
Text: as §1
In general terms: A western blot detects proteins with antibodies after separation by electrophoresis.

For data set [2], the system named is HeLa cells. The data set can be described thus: relative ATP amounts per cell in tunicamycin-treated cells. The following applies: Tm 0.5 μg/ml, 24 hours, ATP 0.1 and 1 mM. The data set is classed as cell-based. The procedure:
(§2) Figure 4 KUSs and ATP each prevented a decrease of ATP levels and ameliorated ER stress in tunicamycin-treated cells. (a) Immunocytochemical analyses of HeLa cells by an anti-laminin γ1 antibody. HeLa cells were treated with 0.5 μg/ml of tunicamycin (Tm) for 5 hours in the presence of KUSs (50 μM), ATP (0.1, 0.3, and 1 mM), methylpyruvate (MePyr) (3 and 10 mM), or vehicle alone (DMSO). Then, cells were fixed and subjected to immunocytochemical analyses. Normally growing HeLa cells were also analyzed (Control). Scale bar, 10 μm. (b) Measurements of the relative amounts of ATP per cell. HeLa cells were treated with tunicamycin (Tm, 0.5 μg/ml) for 24 hours in the presence of KUSs (50 μM) or ATP (0.1 and 1 mM), or vehicle alone (DMSO), and were harvested. Then, ATP amounts from 1.5 × 10^5 cells were measured. * P < 0.05, ** P < 0.01. Error bars indicate SD. (c) Western blot analyses on CHOP. HeLa cells were treated with 0.5 μg/ml of tunicamycin for 5 hours in the presence of KUSs (50 μM), ATP (0.1, 0.3, and 1 mM), methylpyruvate (MePyr) (3 and 10 mM), or vehicle alone (-). Then, cells were harvested and subjected to western blot analyses. Actin served as a loading control. Complete scans of the different blots are presented in Supplementary Fig. 9.

Data set [3] concerns HeLa cells. The data set can be described thus: immunocytochemistry of laminin γ1 aggregation in tunicamycin-treated cells. In kind it is cell-based. The procedure: as §2
Data set [4] has as its system tunicamycin-treated HeLa cells. Description: western blot of ER stress markers and phospho-Akt in tunicamycin-treated cells. In kind it is cell-based. To be noted: Tm 0.5 μg/ml, 5 hours, 0.1 mM ATP. The procedure: Figure 2 Prevention of cell death and ER stress by KUSs. (a) Photographs of HeLa cells, cultured with DMSO (DMSO) or KUSs (KUS94, KUS121, and KUS187, 20 μM each) for 41 hours in low glucose (0.2 g/l) medium. Scale bar, 100 μm. (b–e) WST (water-soluble tetrazolium salts) values reflecting relative live cell numbers are shown, as optical density (OD) at 450 nm. Error bars indicate SD. (b) WST values of HeLa cells, cultured in low glucose (0.2 g/l) with DMSO (control) or KUSs (50 μM for KUS121; 20 μM for KUS69, KUS94, and KUS187, n = 3) for 41 hours. (c) Cell viability, indicated by WST values of HeLa cells, cultured with tunicamycin (Tm) (0.2 μg/ml) for 41 hours with KUSs (20 μM each, n = 3). (d) WST values of HEK293 cells, cultured under serum-free conditions for 65 hours with DMSO (control) or KUSs (20 μM each, n = 3). *** P < 0.001, vs. DMSO control (Dunnett's test). (e) WST values of HeLa cells, cultured in low glucose (0.2 g/l) medium with different concentrations of KUS121 (5, 10, 20, and 50 μM, n = 3) for 41 hours. ** P = 0.008, *** P < 0.001, vs. DMSO control (Dunnett's test). […]
Figure 4 KUSs and ATP each prevented a decrease of ATP levels and ameliorated ER stress in tunicamycin-treated cells. […] Normally growing HeLa cells were also analyzed (Control). […] Then, ATP amounts from 1.5 × 10^5 cells were measured. * P < 0.05, ** P < 0.01. […]

`c1ccc(CNc2nc(NCc3ccccc3)c3ccccc3n2)cc1` [DBeQ, reference compound]: in the data set on VCP, the IC50 was 1 µM. In addition, the “induction of cell death” value in the data set with HeLa cells [1] was “eventually cell death”. For the same compound, the “induction of accumulation of ubiquitinated proteins, ER stress (CHOP), autophagy (LC3)” value in the data set on cellular VCP functions is “induced accumulation of ubiquitinated proteins, ER stress, autophagy”.

As to `Nc1ncnc2c1ncn2[C@@H]1O[C@H](COP(=O)(O)OP(=O)(O)OP(=O)(O)O)[C@@H](O)[C@H]1O` [ATP], the “decrease of ATP levels in tunicamycin-treated cells” value in the data set on HeLa cells [2] is reported as “prevented decreases of ATP levels”. Moreover, the “aggregation of laminin γ1” value is “ineffective in preventing the aggregation of laminin γ1” in the data set with HeLa cells [3] (HeLa, Tm 0.5 μg/ml, 5 hours, 0.1 mM ATP); “clearly prevented the aggregation of laminin γ1” in the data set with HeLa cells [3] (HeLa, Tm 0.5 μg/ml, 5 hours, 1 mM ATP); “prevented the aggregation of laminin γ1” with HeLa cells [3] (tunicamycin-treated HeLa cells, ATP at 0.3 to 1 mM). Also, the “induction of ER stress (CHOP induction)” value in data set [4] was “dampen the induction of ER stress”.

Values taken from article PMC4122966, “Novel VCP modulators mitigate major pathologies of rd10, a mouse model of retinitis pigmentosa” (Scientific Reports, 2014).
